In one test the target is T1, Beta-lactamase (Bacteroides fragilis, UniProt Q8KZP2).
T1 sequence (Q8KZP2 whole entry): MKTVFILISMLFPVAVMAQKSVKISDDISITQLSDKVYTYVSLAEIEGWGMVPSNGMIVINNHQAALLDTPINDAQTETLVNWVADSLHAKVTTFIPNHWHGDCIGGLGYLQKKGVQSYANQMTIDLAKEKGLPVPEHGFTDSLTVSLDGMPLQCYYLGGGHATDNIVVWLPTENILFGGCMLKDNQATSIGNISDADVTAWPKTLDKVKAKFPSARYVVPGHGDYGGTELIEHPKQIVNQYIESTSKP
Briefly: Metallo-Beta-Lactamase Assay. The conditions noted are these: pH 7; 37 °C. From the text:
Enzyme inhibition assay by biphenyl tetrazoles (BPTS)using metallo-beta-lactamase.

The target in the next test is T2, Dipeptidase 1 (Homo sapiens, UniProt P16444).
T2 sequence (P16444 whole entry): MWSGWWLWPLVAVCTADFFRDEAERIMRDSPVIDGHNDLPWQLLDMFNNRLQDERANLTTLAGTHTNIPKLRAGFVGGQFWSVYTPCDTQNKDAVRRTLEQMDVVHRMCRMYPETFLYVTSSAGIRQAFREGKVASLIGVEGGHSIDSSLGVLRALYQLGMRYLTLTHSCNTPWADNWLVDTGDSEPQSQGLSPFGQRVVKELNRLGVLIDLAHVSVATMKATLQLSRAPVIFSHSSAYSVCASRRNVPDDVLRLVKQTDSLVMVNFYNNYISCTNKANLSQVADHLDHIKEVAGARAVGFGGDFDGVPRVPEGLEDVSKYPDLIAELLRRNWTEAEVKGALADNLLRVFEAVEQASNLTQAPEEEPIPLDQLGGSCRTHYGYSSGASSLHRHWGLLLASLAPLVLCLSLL
The test is described as follows: Dehydropeptidase I Assay. Conditions: pH 7; 37 °C. The text has this: Enzyme inhibition assay by biphenyl tetrazoles (BPTS)using dehydropeptidase 1 (DPH-1).

Some results are limits rather than exact numbers.

As for `CCCCc1nc2ccc(O)cc2c(=O)n1Cc1ccc(-c2ccccc2-c2nnn[nH]2)cc1`, the figures for the IC50 on Beta-lactamase and on Dipeptidase 1 were 1.9 µM and above 100 µM, respectively.

`CCCc1nc(CC)c(C=O)n1Cc1ccc(-c2ccccc2-c2nnn[nH]2)cc1`: the IC50 – broadly, the concentration that inhibits the measured activity by half – came to 7 µM against Beta-lactamase and 190 µM against Dipeptidase 1.

Take `Cc1ccc(-c2ccccc2-c2nnn[nH]2)cc1` [L-158,507]: the values for the IC50 on Beta-lactamase and against Dipeptidase 1 were 160 µM and above 1000 µM, respectively.

Take `CCCc1nc2ccc(Cl)nc2n1Cc1ccc(-c2ccccc2-c2nnn[nH]2)cc1` [L-158-678]: the IC50 at Beta-lactamase was found to be 3.5 µM; against Dipeptidase 1, 240 µM.

For `Cc1ccnc2c1nc(C(C)C)n2Cc1ccc(-c2ccccc2-c2nnn[nH]2)cc1` [L-158-817], the IC50 at Beta-lactamase is 1.8 µM; against Dipeptidase 1 it was above 100 µM.

In the case of `CCCCc1nc2c(c(=O)n1Cc1ccc(-c3ccccc3-c3nnn[nH]3)cc1)SCC2` [L-159,906], the values for the IC50 at Beta-lactamase and against Dipeptidase 1 were 0.4 µM and above 100 µM, respectively.

Take `C1=Cc2c(c3ccccc3n2Cc2ccc(-c3ccccc3-c3nnn[nH]3)cc2)CC1` [L-161,189]: the results for the concentration for half-maximal inhibition (IC50) at Beta-lactamase and on Dipeptidase 1 were 0.3 µM and 120 µM, respectively.

For `c1ccc(-c2nnn[nH]2)c(-c2ccc(Cn3cnc4ccccc43)cc2)c1` [L-808,509], the figures for the IC50 against Beta-lactamase and against Dipeptidase 1 were 110 µM and above 500 µM, respectively.

`c1ccc(-c2ccccc2-c2nn[nH]n2)cc1` [L-809,022]: the IC50 was 860 µM at Beta-lactamase and above 1000 µM at Dipeptidase 1.

For the molecule `C1=Cc2[nH]c3cc(OCc4ccc(-c5ccccc5-c5nnn[nH]5)cc4)ccc3c2CC1` [L-809,339], the IC50 at Beta-lactamase was 42 µM; on Dipeptidase 1, above 100 µM.

Turning to `Oc1ccc2c3c(n(Cc4ccc(-c5ccccc5-c5nnn[nH]5)cc4)c2c1)C=CCC3` [L-809,370], the IC50 at Beta-lactamase was 6 µM; against Dipeptidase 1 it was above 100 µM.

As for `c1ccc(-c2nnn[nH]2)c(-c2ccc(Cn3cnc4cccnc43)cc2)c1` [L-809-558], the IC50 was 42 µM against Beta-lactamase and above 250 µM against Dipeptidase 1.

On to `Cc1nc2ccccc2n1Cc1ccc(-c2ccccc2-c2nnn[nH]2)cc1` [L-809-559], for which the figures for the IC50 on Beta-lactamase and on Dipeptidase 1 were 4 µM and above 250 µM, respectively.
